Test results published in US20020183362A1, “2-Fluorobenzenesulfonyl compounds for the treatment of inflammation” (Pharmacia Corporation, priority 2000, published 2002).
Where a name gives a salt, the structure may show the parent alone.

Key:
Human COX-2 [1] = target: T1, Human COX-2 (Homo sapiens, UniProt P35354); assay: Fast assay for COX-1 and COX-2 activity (PGE2 ELISA), COX-2; assay type: biochemical; settings: Table II, pre-incubated 10 minutes at 25° C., arachidonic acid 10 μM, stopped after two minutes, pH 7.5
T1 construct: A 2.0 kb fragment containing the coding region of either human or murine COX-1 or human or murine COX-2; made in house; host or cells: SF9 insect cells (baculovirus, transfer vector pVL1393)
T1 sequence (P35354 18-604): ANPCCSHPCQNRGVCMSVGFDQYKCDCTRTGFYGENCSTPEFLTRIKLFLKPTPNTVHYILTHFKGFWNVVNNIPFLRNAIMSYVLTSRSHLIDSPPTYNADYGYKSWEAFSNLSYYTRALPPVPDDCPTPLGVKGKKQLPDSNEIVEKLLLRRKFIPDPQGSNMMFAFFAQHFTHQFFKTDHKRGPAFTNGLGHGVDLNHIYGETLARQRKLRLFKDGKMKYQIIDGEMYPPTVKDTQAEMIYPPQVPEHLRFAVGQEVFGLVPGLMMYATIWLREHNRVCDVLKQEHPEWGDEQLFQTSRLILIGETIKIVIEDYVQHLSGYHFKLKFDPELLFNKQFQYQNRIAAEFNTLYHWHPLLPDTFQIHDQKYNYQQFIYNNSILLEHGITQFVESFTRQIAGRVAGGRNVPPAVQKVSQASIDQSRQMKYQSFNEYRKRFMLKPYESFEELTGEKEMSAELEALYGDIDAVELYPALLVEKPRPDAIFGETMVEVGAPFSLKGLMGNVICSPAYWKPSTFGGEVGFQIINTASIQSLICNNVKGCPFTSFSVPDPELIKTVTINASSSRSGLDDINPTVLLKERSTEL
Method: (§1) Recombinant COX-1 and COX-2 were prepared as described by Gierse et al, [J. Biochem., 305, 479-84 (1995)]. A 2.0 kb fragment containing the coding region of either human or murine COX-1 or human or murine COX-2 was cloned into a BamH1 site of the baculovirus transfer vector pVL1393 (Invitrogen) to generate the baculovirus transfer vectors for COX-1 and COX-2 in a manner similar to the method of D. R. O'Reilly et al (Baculovirus Expression Vectors: A Laboratory Manual (1992)). Recombinant baculoviruses were isolated by transfecting 4 μg of baculovirus transfer vector DNA into SF9 insect cells (2×10^8) along with 200 ng of linearized baculovirus plasmid DNA by the calcium phosphate method. See M. D. Summers and G. E. Smith, A Manual of Methods for Baculovirus Vectors and Insect Cell Culture Procedures, Texas Agric. Exp. Station Bull. 1555 (1987). Recombinant viruses were purified by three rounds of plaque purification and high titer (10^7-10^8 pfu/mL) stocks of virus were prepared. For large scale production, SF9 insect cells were infected in 10 liter fermentors (0.5×10^6/mL) with the recombinant baculovirus stock such that the multiplicity of infection was 0.1. After 72 hours the cells were centrifuged and the cell pellet homogenized in Tris/Sucrose (50 mM: 25%, pH 8.0) containing 1% 3-[(3-cholamidopropyl)dimethylammonio]-1-propanesulfonate (CHAPS). The homogenate was centrifuged at 10,000×G for 30 minutes, and the resultant supernatant was stored at −80° C. before being assayed for COX activity.
(§2) COX activity was assayed as PGE2 formed/μg protein/time using an ELISA to detect the prostaglandin released. CHAPS-solubilized insect cell membranes containing the appropriate COX enzyme were incubated in a potassium phosphate buffer (0.05 M Potassium phosphate, pH 7.5, 2 μM phenol, 1 μM heme, 300 μM epinephrine) with the addition of 20 μl of 100 μM arachidonic acid (10 μM). Compounds were pre-incubated with the enzyme for 10 minutes at 25° C. prior to the addition of arachidonic acid. Any reaction between the arachidonic acid and the enzyme was stopped after two minutes at 37° C./room temperature by transferring 40 μl of reaction mix into 160 μl ELISA buffer and 25 μM indomethacin. The PGE2 formed was measured by standard ELISA technology (Cayman Chemical).

Human COX-2 [2] = target: T1, Human COX-2; assay: Assay for COX-1 and COX-2 activity (PGE2 ELISA, recombinant enzyme), COX-2; assay type: biochemical; settings: Table I; pre-incubated 10-20 minutes, arachidonic acid 10 μM, stopped after ten minutes, pH 8.0
Method: The COX-2 inhibition activity of the compounds of this invention illustrated in the Examples was determined by the following methods.
as §1
(§3) COX activity was assayed as PGE2 formed/μg protein/time using an ELISA to detect the prostaglandin released. CHAPS-solubilized insect cell membranes containing the appropriate COX enzyme were incubated in a potassium phosphate buffer (50 mM, pH 8.0) containing epinephrine, phenol, and heme with the addition of arachidonic acid (10 μM). Compounds were pre-incubated with the enzyme for 10-20 minutes prior to the addition of arachidonic acid. Any reaction between the arachidonic acid and the enzyme was stopped after ten minutes at 37° C./room temperature by transferring 40 μl of reaction mix into 160 μELISA buffer and 25 μM indomethacin. The PGE2 formed was measured by standard ELISA technology (Cayman Chemical).

Human COX-1 [3] = target: T2, Human COX-1 (Homo sapiens, UniProt P23219); assay: Fast assay for COX-1 and COX-2 activity (PGE2 ELISA), COX-1; assay type: biochemical; settings: Table II, pre-incubated 10 minutes at 25° C., arachidonic acid 10 μM, stopped after two minutes, pH 7.5
T2 construct: A 2.0 kb fragment containing the coding region of either human or murine COX-1 or human or murine COX-2; made in house; host or cells: SF9 insect cells (baculovirus, transfer vector pVL1393)
T2 sequence (P23219 24-599): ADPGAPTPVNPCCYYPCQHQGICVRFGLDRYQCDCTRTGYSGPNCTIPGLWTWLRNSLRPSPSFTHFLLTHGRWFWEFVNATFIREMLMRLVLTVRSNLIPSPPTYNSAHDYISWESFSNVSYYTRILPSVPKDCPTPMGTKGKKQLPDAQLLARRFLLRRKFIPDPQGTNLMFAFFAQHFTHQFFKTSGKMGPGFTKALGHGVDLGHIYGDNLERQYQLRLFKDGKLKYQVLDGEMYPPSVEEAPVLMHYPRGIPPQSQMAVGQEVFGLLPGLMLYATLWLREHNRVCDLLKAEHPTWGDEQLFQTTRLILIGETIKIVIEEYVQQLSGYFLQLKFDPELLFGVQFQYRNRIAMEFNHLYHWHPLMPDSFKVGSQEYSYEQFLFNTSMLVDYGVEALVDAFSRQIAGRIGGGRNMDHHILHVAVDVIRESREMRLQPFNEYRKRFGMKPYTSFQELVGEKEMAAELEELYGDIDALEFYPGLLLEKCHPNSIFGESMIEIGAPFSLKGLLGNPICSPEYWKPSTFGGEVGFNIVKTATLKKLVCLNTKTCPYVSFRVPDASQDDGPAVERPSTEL
Method: as §1, with “Recombinant” for “Recombinant COX-1 and COX-2 were prepared as described by Gierse et al, [J. Biochem., 305, 479-84 (1995)]. A 2.0 kb fragment containing the coding region of either human or murine COX-1 or human or murine COX-2 was cloned into a BamH1 site of the baculovirus transfer vector pVL1393 (Invitrogen) to generate the baculovirus transfer vectors for COX-1 and COX-2 in a manner similar to the method of D. R. O'Reilly et al (Baculovirus Expression Vectors: A Laboratory Manual (1992)). Recombinant”, “1555 (1987).” left out
as §2, with “Any reaction between the arachidonic acid and the enzyme was stopped after two minutes at 37° C./room temperature by transferring 40 μl of reaction mix into 160 μl ELISA buffer and 25 μM indomethacin.” left out

Human COX-1 [4] = target: T2, Human COX-1; assay: Assay for COX-1 and COX-2 activity (PGE2 ELISA, recombinant enzyme), COX-1; assay type: biochemical; settings: Table I; pre-incubated 10-20 minutes, arachidonic acid 10 μM, stopped after ten minutes, pH 8.0
Method: as §1, with “Recombinant” for “Recombinant COX-1 and COX-2 were prepared as described by Gierse et al, [J. Biochem., 305, 479-84 (1995)]. A 2.0 kb fragment containing the coding region of either human or murine COX-1 or human or murine COX-2 was cloned into a BamH1 site of the baculovirus transfer vector pVL1393 (Invitrogen) to generate the baculovirus transfer vectors for COX-1 and COX-2 in a manner similar to the method of D. R. O'Reilly et al (Baculovirus Expression Vectors: A Laboratory Manual (1992)). Recombinant”, “1555 (1987).” left out
as §3, with “Any reaction between the arachidonic acid and the enzyme was stopped after ten minutes at 37° C./room temperature by transferring 40 μl of reaction mix into 160 μELISA buffer and 25 μM indomethacin.” left out

CS(=O)(=O)c1ccc(-c2cc(C(F)F)nn2-c2ccc(F)cc2)cc1F (as salt: trifluoroacetate) [Example 18, 3-(Difluoromethyl)-5-[3-fluoro-4-(methylsulfonyl)phenyl]-1-(4-fluorophenyl)-1H-pyrazole]
melting point: 201 to 202 °C

CS(=O)(=O)c1ccc(-c2cc(C(F)F)nn2-c2cccc(C(F)(F)F)c2)cc1F (as salt: trifluoroacetate) [Example 21]
melting point: 110 to 111 °C

COc1ccc(-c2cc(C(F)(F)F)nn2-c2ccc(S(N)(=O)=O)c(F)c2)cc1 [Example 7, 2-Fluoro-4-[5-(4-methoxyphenyl)-3-(trifluoromethyl)-1H-pyrazol-1-yl]benzenesulfonamide]
IC50 (Human COX-2 [1]): 4 nM | IC50 (Human COX-2 [2]): 5 nM

CS(=O)(=O)c1ccc(-c2cc(C(F)F)nn2C2CCCCC2)cc1F (as salt: trifluoroacetate) [Example 19, 1-Cyclohexyl-3-(difluoromethyl)-5-[3-fluoro-4-(methylsulfonyl)phenyl]-1H-pyrazole]
melting point: 138 to 139 °C

CS(=O)(=O)c1ccc(-c2cc(C(F)F)nn2C2CCCCC2)cc1F [Example 19, 1-Cyclohexyl-3-(difluoromethyl)-5-[3-fluoro-4-(methylsulfonyl)phenyl]-1H-pyrazole]
IC50 (Human COX-1 [3]): > 100000 nM | IC50 (Human COX-1 [4]): > 100000 nM | IC50 (Human COX-2 [1]): 340 nM | IC50 (Human COX-2 [2]): 700 nM

Cc1ccc(-n2nc(C(F)F)cc2-c2ccc(S(C)(=O)=O)c(F)c2)cc1Cl [Example 20, 1-(3-Chloro-4-methylphenyl)-3-(difluoromethyl)-5-[3-fluoro-4-(methylsulfonyl)phenyl]-1H-pyrazole]
IC50 (Human COX-1 [3]): > 100000 nM | IC50 (Human COX-1 [4]): > 100000 nM | IC50 (Human COX-2 [1]): 53 nM | IC50 (Human COX-2 [2]): 36 nM

Cc1ccc(-c2cc(C(F)(F)F)nn2-c2ccc(S(N)(=O)=O)c(F)c2)cc1 (as salt: trifluoroacetate) [Example 4, 4-[5-(4-Methylphenyl)-3-(trifluoromethyl)-1H-pyrazol-1-yl]-2-fluorobenzenesulfonamide]
melting point: 126 to 128 °C

Cc1onc(-c2ccccc2)c1-c1ccc(S(N)(=O)=O)c(F)c1 [Example 23]
melting point: 180 to 182 °C

COc1ccc(-c2cc(C(F)(F)F)nn2-c2ccc(S(N)(=O)=O)c(F)c2)cc1F (as salt: trifluoroacetate) [Example 6, 4-[5-(3-Fluoro-4-methoxy)-3-trifluoromethyl-1H-pyrazol-1-yl]-2-fluorobenzenesulfonamide]
melting point: 124 to 126 °C

COc1ccccc1-c1cc(C(F)(F)F)nn1-c1ccc(S(N)(=O)=O)c(F)c1 (as salt: trifluoroacetate) [Example 9, 2-Fluoro-4-[5-(2-methoxyphenyl)-3-(trifluoromethyl)-1H-pyrazol-1-yl]benzenesulfonamide]
melting point: 159 to 160 °C

NS(=O)(=O)c1ccc(-n2nc(C(F)(F)F)cc2-c2ccc(F)cc2)cc1F (as salt: trifluoroacetate) [Example 8, 2-Fluoro-4-[5-(4-fluorophenyl)-3-(trifluoromethyl)-1H-pyrazol-1-yl]benzenesulfonamide]
melting point: 127 to 130 °C

CS(=O)(=O)c1ccc(-c2cc(C(F)F)nn2-c2cccc(C(F)(F)F)c2)cc1F [Example 21]
IC50 (Human COX-1 [3]): > 100000 nM | IC50 (Human COX-1 [4]): > 100000 nM | IC50 (Human COX-2 [1]): 290 nM | IC50 (Human COX-2 [2]): 550 nM

COc1ccccc1-c1cc(C(F)(F)F)nn1-c1ccc(S(N)(=O)=O)c(F)c1 [Example 9, 2-Fluoro-4-[5-(2-methoxyphenyl)-3-(trifluoromethyl)-1H-pyrazol-1-yl]benzenesulfonamide]
IC50 (Human COX-1 [3]): > 100000 nM | IC50 (Human COX-1 [4]): > 100000 nM | IC50 (Human COX-2 [1]): 180 nM | IC50 (Human COX-2 [2]): 250 nM

Cc1ccc(-c2cc(C(F)(F)F)nn2-c2ccc(S(N)(=O)=O)c(F)c2)cc1 [Example 4, 4-[5-(4-Methylphenyl)-3-(trifluoromethyl)-1H-pyrazol-1-yl]-2-fluorobenzenesulfonamide]
IC50 (Human COX-1 [3]): 20300 nM | IC50 (Human COX-1 [4]): 40500 nM | IC50 (Human COX-2 [1]): 6 nM | IC50 (Human COX-2 [2]): 19 nM

COc1ccc(-c2cc(C(F)F)nn2-c2ccc(S(N)(=O)=O)c(F)c2)cc1F [Example 10, 4-[3-(Difluoromethyl)-5-(3-fluoro-4-methoxyphenyl)-1H-pyrazol-1-yl]-2-fluorobenzenesulfonamide]
IC50 (Human COX-1 [4]): > 100000 nM | melting point: 167 to 169 °C | IC50 (Human COX-2 [2]): 110 nM

COc1ccc(-c2cc(C(F)(F)F)nn2-c2ccc(S(N)(=O)=O)c(F)c2)cc1F [Example 6, 4-[5-(3-Fluoro-4-methoxy)-3-trifluoromethyl-1H-pyrazol-1-yl]-2-fluorobenzenesulfonamide]
IC50 (Human COX-1 [3]): > 100000 nM | IC50 (Human COX-1 [4]): 45600 nM | IC50 (Human COX-2 [1]): 18 nM | IC50 (Human COX-2 [2]): 25 nM

NS(=O)(=O)c1ccc(-n2nc(C(F)(F)F)cc2-c2ccc(Cl)cc2)cc1F (as salt: trifluoroacetate) [Example 5, 4-[5-(4-Chlorophenyl)-3-trifluoromethyl-1H-pyrazol-1-yl]-2-fluorobenzenesulfonamide]
melting point: 140 to 141 °C

Cc1ccc(-n2nc(C(F)F)cc2-c2ccc(S(C)(=O)=O)c(F)c2)cc1Cl (as salt: trifluoroacetate) [Example 20, 1-(3-Chloro-4-methylphenyl)-3-(difluoromethyl)-5-[3-fluoro-4-(methylsulfonyl)phenyl]-1H-pyrazole]
melting point: 146 to 147 °C
